Data on six molecules can be found in the NIST ThermoML archive (doi:10.1021/je900730w).

The conditions of series [1]: for mass density: 293.15 K, 101.33 kPa, Liquid.
A short description of series [2]: refractive index (Na D-line) (dimensionless). The following applies: 293.15 K; 101.33 kPa; Liquid; Standard Abbe refractometry.
The nature of series [3]: Molar enthalpy of transition or fusion. The note with it: Crystal; DSC.

Each structure is given as a SMILES string. Numbers after ± are expanded uncertainties.

On to `CCOCCO` [2-ethoxyethan-1-ol], for which the mass density – broadly, mass per unit of volume – in series [1] (Vibrating tube method) was determined as 929 ± 1 kg/m3. Moreover, the refractive index (usually the speed of light in vacuum divided by its phase velocity in the sample) in series [2] came to 1.4065 ± 0.0007.

Turning to `O=P(c1ccccc1)(c1ccccc1)c1cc(O)ccc1O` [(2,5-dihydroxyphenyl)diphenyl phosphine oxide], the Normal melting temperature in series [1] (Crystal, DTA) is 214.60 ± 0.5 °C. Moreover, the “Molar enthalpy of transition or fusion” value in series [3] is 8.91 ± 0.239 kcal/mol.

For the molecule `CC(C)=O` [acetone], the mass density in series [1] (Vibrating tube method) is 790 ± 1 kg/m3. Also, the refractive index in series [2] amounted to 1.359 ± 0.0007.

Turning to `CCO` [ethanol], the mass density in series [1] (Vibrating tube method) amounted to 790 ± 1 kg/m3. Moreover, the refractive index in series [2] worked out at 1.366 ± 0.0007.

As to `CO` [methanol], in series [1], the mass density came out at 792 ± 1 kg/m3. Besides, the refractive index in series [2] was determined as 1.3301 ± 0.0007.

With `Cc1ccccc1` [toluene], the mass density in series [1] (Vibrating tube method) came to 866 ± 1 kg/m3. In series [2], the refractive index came out at 1.4967 ± 0.0007.
